Measured values as given in US10085957B2, “Benzoic acid compounds for reducing uric acid” (Wellstat Therapeutics Corporation, priority 2010, dated 2018).
Like-named read-outs stand apart in the source and are kept apart here.

Target: T1, human URAT1 (Homo sapiens, UniProt Q96S37)
T1 construct: The full-length hURAT1 cDNA was obtained from the vector pCMV6-XL5 and subcloned into the expression vector pCMV6-Neo
T1 sequence (Q96S37 1-553): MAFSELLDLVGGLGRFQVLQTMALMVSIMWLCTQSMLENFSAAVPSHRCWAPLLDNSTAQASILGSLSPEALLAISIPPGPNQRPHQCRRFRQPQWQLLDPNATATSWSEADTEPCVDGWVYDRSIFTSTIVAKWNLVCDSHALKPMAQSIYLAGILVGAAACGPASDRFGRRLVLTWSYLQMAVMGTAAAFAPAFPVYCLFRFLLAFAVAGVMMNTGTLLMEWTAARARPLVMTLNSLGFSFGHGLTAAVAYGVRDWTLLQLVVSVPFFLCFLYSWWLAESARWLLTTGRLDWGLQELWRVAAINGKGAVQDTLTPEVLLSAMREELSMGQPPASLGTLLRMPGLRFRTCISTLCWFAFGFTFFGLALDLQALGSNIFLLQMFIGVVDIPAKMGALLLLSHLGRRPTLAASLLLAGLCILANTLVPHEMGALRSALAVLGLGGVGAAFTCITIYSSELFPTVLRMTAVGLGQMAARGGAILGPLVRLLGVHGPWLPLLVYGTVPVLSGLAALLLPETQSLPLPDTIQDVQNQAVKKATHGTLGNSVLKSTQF
Assay: URAT1 inhibition assay: [8-14C] urate uptake in hURAT1-HEK cells
Format: cell-based
Procedure: An in vitro URAT1 assay is useful for identifying compounds with potential activity in lowering serum uric acid. A suitable assay involves transfection of cells (e.g. human embryonic kidney cells; “HEK”) with a vector encoding human URAT1, followed by determination of the ability of transfected cells to take up radiolabeled uric acid. The activity of compounds as URAT1 inhibitors is evaluated by their ability to block uric acid uptake by transfected cells.
Plasmid vector pCMV6-XL5 containing hURAT1 cDNA (Cat. No. SC125624) and the expression vector pCMV6-Neo (Cat. No.pCMVNEO) were obtained from OriGene Technologies, Inc. The full-length hURAT1 cDNA was obtained from the vector pCMV6-XL5 and subcloned into the expression vector pCMV6-Neo to create the hURAT1 expression plasmid pCMV6-hURAT1. The sequences were verified by automatic DNA sequencing.
Human embryonic kidney 293 (HEK) cells (ATTCC, Cat No. CRL-1573) were cultured in EMEM supplemented with 10% FBS and 2 mM L-glutamine and incubated at 37° C. and 5% CO2. For transfection experiments, cells were plated on 60 mm dishes in 1 ml media per dish. After an 18-24 hour incubation, cells were transfected with plasmid pCMV6-hURAT1 or the expression vector pCMV6-Neo, using the Lipofectin trasfection agent following the manufacturer's instructions (Invitrogen, Cat.No. 18292). After transfection cells were grown in EMEM media for 72 hours and then by adding lmg/ml Geneticin (GIBCO, Cat. No 10131) stable transfectants were selected. Stable transfectants expressing hURAT1 (herein after referred as hURAT1-HEK cells) or cells having only the expression vector pCMV6-Neo (herein after referred as mock-HEK cells) were verified using reverse transcription polymerase chain reaction (RT-PCR) methods.
hURAT1-HEK cells and mock-HEK cells were plated in poly-D-Lysine Cell culture 24 well plates (Becton Dickinson, Cat. No. 354414) at a concentration of 3×10^5 in EMEM medium and incubated overnight. Reaction solutions containing the [8-^14C] urate (55 mCi/mmol) at a final concentration of 50 μM were prepared with or without test compounds in Hanks' balanced salt solution (HBSS) containing 125 mM sodium gluconate, 4.8 mM potassium gluconate, 1.3 mM calcium, 5.6 mM glucose, 1.2 mM magnesium sulfate, 1.2 mM KH2PO4 and 25 mM HEPES (pH7.4). Before the uptake assay started, the culture medium was removed and the cells were incubated for 5 min in 0.6 ml of HBSS. After that HBSS was removed, the prepared reaction solutions were added into each well and incubated for 5 min at room temperature. Then the reaction solution was removed, cells were washed twice with 0.6 ml of cold HBSS and lysed with 0.2 ml of 0.1 M NaOH for 20 min. The cell lysates were transferred into the scintillation vials containing 1 ml of scintillation fluid (Opti Phase SuperMIX, PerkinElmer, Cat No. 1200-439) and the radioactivity was counted in the Microbeta counter (1450, Wallac Jet, PerkinElmer). Test compounds were dissolved in DMSO and the same concentration of DMSO was added into the wells of mock-HEK cells and the hURAT1-HEK cells that didn't contain test compounds. For each test compound, the uptake assay was performed 2 times and carried out in triplicate. Urate uptake of the cells for each test condition was presented as the average percent inhibition in comparison to the DMSO control. The radioactivity values obtained for the wells that contained DMSO were taken as 100% uptake of the cells. The observed concentration-percent inhibition data were fitted to a sigmoidal concentration-effect model, where: % Inhibition=(100*Conc^Slope)/(IC50^Slope+Conc^Slope)
IC50 and slope estimates with their 95% confidence limits were determined by a non-linear, least-squares regression analysis using the Data Analysis Toolbox™ (MDL Information Systems, San Leandro, Calif., USA). […]

[1] = 10 μM test compound, 14C urate uptake in hURAT1-HEK cells, vs DMSO control, read-out: % of inhibition (at 10 μM)

Structure (SMILES) | inhibition at 10 µM [1] [%] | other results
COc1ccc(C(=O)O)cc1OCc1c(C)cccc1C [Compound FC, 3-(2,6-dimethylbenzyloxy)-4-methoxybenzoic acid] | 89.2 | inhibition at 0.05 µM (concentration 0.05 μM, urate uptake in hURAT1-HEK cells): 7.08%; inhibition at 0.1 µM (concentration 0.1 μM, urate uptake in hURAT1-HEK cells): -1.08%; inhibition at 0.5 µM (concentration 0.5 μM, urate uptake in hURAT1-HEK cells): 34.6%; inhibition at 1 µM (concentration 1 μM, urate uptake in hURAT1-HEK cells): 49.8%; inhibition at 10 µM (concentration 10 μM, urate uptake in hURAT1-HEK cells (Table 2), read-out: % of inhibition Avg.): 93.3%; inhibition at 100 µM (concentration 100 μM, urate uptake in hURAT1-HEK cells): 97.8%
Cc1ccc(CC(=O)O)cc1OCc1c(C)cccc1C [EH, 2-(3-(2,6-Dimethylbenzyloxy)-4-methylphenyl)acetic acid, reference compound] | 95.6 | 
Cc1ccc(C(=O)O)cc1OCc1c(C)cccc1C [FA, 3-(2,6-dimethylbenzyloxy)-4-methylbenzoic acid] | 83.2 | 
Cc1cccc(C)c1COc1cc(C(=O)O)ccc1[N+](=O)[O-] [FB, 3-(2,6-dimethylbenzyloxy)-4-nitrobenzoic acid] | 81 | 

Continued, in another order:

inhibition at 10 µM [1] [%] | Structure (SMILES) | other results
68.1 | Cc1cccc(C)c1COc1cc(C(=O)O)ccc1F [FD, 3-(2,6-dimethylbenzyloxy)-4-fluorobenzoic acid] | 
10 | Cc1cccc(C)c1COc1cc(C(=O)O)ccc1N [FE, 4-amino-3-(2,6-dimethylbenzyloxy)benzoic acid] | 
